Among the data in patent EP0942911B1, “BENZOPYRANOPYRROLE AND BENZOPYRANOPYRIDINE ALPHA-1 ADRENERGIC COMPOUNDS” (Abbott Laboratories, priority 1996, dated 1998) are Ki values, retold here.

Like-named read-outs stand apart in the source and are kept apart here.

In general, Ki refers to the equilibrium dissociation constant of an inhibitor or competing ligand from its target.

Test in all cases: biochemical
The target in one test is T1, α-1d adrenoreceptor (Rattus norvegicus, UniProt P23944).
T1 sequence (P23944 1-561): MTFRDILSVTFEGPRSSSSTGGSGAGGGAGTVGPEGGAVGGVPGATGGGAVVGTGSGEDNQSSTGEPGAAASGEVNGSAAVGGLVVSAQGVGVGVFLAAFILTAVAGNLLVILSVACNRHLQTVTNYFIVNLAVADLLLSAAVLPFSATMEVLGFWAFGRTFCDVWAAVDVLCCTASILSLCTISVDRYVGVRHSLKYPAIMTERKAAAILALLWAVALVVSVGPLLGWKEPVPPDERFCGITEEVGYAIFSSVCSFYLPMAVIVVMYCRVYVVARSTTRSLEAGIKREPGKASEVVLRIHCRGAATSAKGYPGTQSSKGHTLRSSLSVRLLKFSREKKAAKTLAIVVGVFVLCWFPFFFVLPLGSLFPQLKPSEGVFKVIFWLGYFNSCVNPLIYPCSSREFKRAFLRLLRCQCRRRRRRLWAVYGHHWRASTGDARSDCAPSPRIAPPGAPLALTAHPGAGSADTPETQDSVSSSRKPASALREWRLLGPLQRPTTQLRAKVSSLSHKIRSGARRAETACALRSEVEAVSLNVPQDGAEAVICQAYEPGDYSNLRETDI
The test is classed as binding. The conditions noted are these: read-out: Radioligand Binding (Ki, nM) 1d (Rat). In outline: (§1)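 Cloned α-1a (bovine), α-1b (hamster) and α-1d (rat) adrenoreceptors were stably expressed in mouse LTK fibroblasts; membranes from roller-bottle cultures were used. Native α-1A sites came from rat submaxillary gland. Radioligand binding followed Greengrass and Bremner, with liquid scintillation read-out.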

For the next test, the target named is T2, α-1a adrenoreceptor (Bos taurus, UniProt P18130).
T2 sequence (P18130 1-466): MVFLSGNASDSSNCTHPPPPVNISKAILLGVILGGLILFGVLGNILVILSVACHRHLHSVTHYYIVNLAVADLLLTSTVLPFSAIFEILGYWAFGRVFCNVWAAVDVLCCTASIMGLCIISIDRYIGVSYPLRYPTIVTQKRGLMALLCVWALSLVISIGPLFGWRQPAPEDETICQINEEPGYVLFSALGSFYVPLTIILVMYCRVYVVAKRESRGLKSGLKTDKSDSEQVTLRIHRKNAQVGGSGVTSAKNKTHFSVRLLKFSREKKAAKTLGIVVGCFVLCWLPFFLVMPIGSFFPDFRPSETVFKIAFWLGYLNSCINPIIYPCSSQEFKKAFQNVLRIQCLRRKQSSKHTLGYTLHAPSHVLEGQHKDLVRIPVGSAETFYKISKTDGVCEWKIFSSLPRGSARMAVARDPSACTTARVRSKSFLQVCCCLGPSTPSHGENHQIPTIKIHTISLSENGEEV
The test is classed as binding, bovine. The conditions noted are these: read-out: Radioligand Binding (Ki, nM) 1a (Bovine). In outline:
as §1

Test [1] concerns the target T3, α-1A adrenoreceptor (rat submaxillary gland) (Rattus norvegicus, UniProt P43140).
T3 sequence (P43140 1-466): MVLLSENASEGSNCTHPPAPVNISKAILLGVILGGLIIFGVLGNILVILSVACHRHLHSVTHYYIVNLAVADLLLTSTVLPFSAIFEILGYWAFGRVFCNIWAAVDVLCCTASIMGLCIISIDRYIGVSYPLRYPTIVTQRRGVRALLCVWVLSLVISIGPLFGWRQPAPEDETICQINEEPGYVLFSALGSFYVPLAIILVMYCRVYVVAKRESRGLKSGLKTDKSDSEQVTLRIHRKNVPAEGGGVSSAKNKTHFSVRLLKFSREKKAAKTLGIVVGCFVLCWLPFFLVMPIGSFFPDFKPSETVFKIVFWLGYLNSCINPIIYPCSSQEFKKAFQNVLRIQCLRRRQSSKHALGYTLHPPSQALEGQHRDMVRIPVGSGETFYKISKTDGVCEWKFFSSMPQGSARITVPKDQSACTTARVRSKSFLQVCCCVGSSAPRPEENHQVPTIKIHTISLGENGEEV
Type of test: binding. The conditions noted are these: read-out: Radioligand Binding (Ki, nM) 1A (Rat). In outline:
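Radioligand binding to α-1A sites in membrane homogenates of rat submaxillary gland, run after Greengrass and Bremner. Bound radioactivity counted by liquid scintillation.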

The mark [2] stands for this setting: [3H]-prazosin radioligand, cloned receptor in LTK cell membranes.

Consider “3-[4-((3aR,9bR)-cis-9-Methoxy-1,2,3,3a,4,9b-hexahydro-[1]-benzopyrano[3,4-c]pyrrol-2-yl]butyl]-7-methoxy-pyrido[3',2':4,5]thieno[3,2-d]pyrimidine-2,4(1H,3H)-dione hydrochloride [Example 33]”, for which the inhibition constant Ki was found to be 0.701 nM at α-1d adrenoreceptor (setting [2]); 0.082 nM at α-1a adrenoreceptor (setting [2]); 0.811 nM in test [1] ([3H]-prazosin radioligand, rat submaxillary gland membranes).

Take `COc1ccc2c(c1)OC[C@H]1CN(CCn3c(=O)[nH]c4c(sc5ccccc54)c3=O)C[C@@H]21.Cl` (racemic) [Example 63, 3-[2-((±)-cis-7-Methoxy-1,2,3,3a,4,9b-hexahydro-[1]-benzopyrano[3,4-c]pyrrol-2-yl)ethyl]-[1]benzthieno[3,2-d]pyrimidine-2,4(1H,3H)-dione hydrochloride]: the inhibition constant Ki amounted to 70.1 nM on α-1d adrenoreceptor, 11.2 nM on α-1a adrenoreceptor and 51.2 nM in test [1].

With `COc1ccc2c(c1)OC[C@H]1CN(CCCn3c(=O)[nH]c4c(sc5ccccc54)c3=O)C[C@@H]21.Cl` (racemic) [Example 64, 3-[3-((±)-cis-7-Methoxy-1,2,3,3a,4,9b-hexahydro-[1]-benzopyrano[3,4-c]pyrrol-2-yl)propyl]-[1]benzthieno[3,2-d]pyrimidine-2,4(1H,3H)-dione hydrochloride], the Ki on α-1d adrenoreceptor is 10.4 nM; on α-1a adrenoreceptor, 1.63 nM; in test [1], 4.2 nM.

On to `COc1cccc2c1[C@@H]1CN(CCn3c(=O)[nH]c4c(sc5ccccc54)c3=O)C[C@@H]1CO2.Cl` (racemic) [Example 65, 3-[2-((±)-cis-9-Methoxy-1,2,3,3a,4,9b-hexahydro-[1]-benzopyrano[3,4-c]pyrrol-2-yl)ethyl]-[1]benzthieno[3,2-d]pyrimidine-2,4(1H,3H)-dione hydrochloride], for which the inhibition constant (Ki) on α-1d adrenoreceptor amounted to 25 nM; on α-1a adrenoreceptor, 1.82 nM; in test [1] it was 15 nM.

In the case of `COc1cccc2c1[C@@H]1CN(CCCn3c(=O)[nH]c4c(sc5ccccc54)c3=O)C[C@@H]1CO2.Cl` (racemic) [Example 66, 3-[3-((±)-cis-9-Methoxy-1,2,3,3a,4,9b-hexahydro-[1]-benzopyrano[3,4-c]pyrrol-2-yl)propyl]-[1]benzthieno[3,2-d]pyrimidine-2,4(1H,3H)-dione hydrochloride], the results for the inhibition constant Ki (at α-1d adrenoreceptor; on α-1a adrenoreceptor; in test [1]) were 87.7 nM, 24.8 nM and 214 nM, respectively.

Consider `COc1cccc2c1OC[C@H]1CN(CCn3c(=O)[nH]c4c(sc5ccccc54)c3=O)C[C@@H]21.Cl` (racemic) [Example 67, 3-[2-((±)-cis-6-Methoxy-1,2,3,3a,4,9b-hexahydro-[1]-benzopyrano[3,4-c]pyrrol-2-yl)ethyl]-[1]benzthieno[3,2-d]pyrimidine-2,4(1H,3H)-dione hydrochloride], for which the Ki worked out at 65 nM at α-1d adrenoreceptor, 77.2 nM on α-1a adrenoreceptor and 116 nM in test [1].

For `COc1cccc2c1OC[C@H]1CN(CCCn3c(=O)[nH]c4c(sc5ccccc54)c3=O)C[C@@H]21.Cl` (racemic) [Example 68, 3-[3-((±)-cis-6-Methoxy-1,2,3,3a,4,9b-hexahydro-[1]-benzopyrano[3,4-c]pyrrol-2-yl)propyl]-[1]benzthieno[3,2-d]pyrimidine-2,4(1H,3H)-dione hydrochloride], the Ki at α-1d adrenoreceptor was 42.5 nM; on α-1a adrenoreceptor, 7.82 nM; in test [1], 40.6 nM.

Consider `Cl.O=c1[nH]c2c(sc3ccccc32)c(=O)n1CCN1C[C@@H]2COc3ccccc3[C@@H]2C1` (racemic) [Example 69, 3-[2-((±)-cis-1,2,3,3a,4,9b-hexahydro-[1]-benzopyrano[3,4-c]pyrrol-2-yl)ethyl]-[1]benzthieno[3,2-d]pyrimidine-2,4(1H,3H)-dione hydrochloride], for which the figures for the Ki (on α-1d adrenoreceptor; on α-1a adrenoreceptor; in test [1]) were 1.63 nM, 0.344 nM and 0.665 nM, respectively.
